Measurements taken from article PMC7790160 (Journal of pharmaceutical sciences, 2020).

What was measured:
[1] = system: HCC827–4 μM (Acquired 4 μM ERL Resistant); experiment: Cytotoxicity assay; format: cell-based; settings: 48 h, single agent, no unit printed in Table 3 (b74 gives μM)
H460 (KRAS mutated) = experiment: Cytotoxicity assay; format: cell-based
total EGFR = experiment: Western blot analysis of total EGFR; format: cell-based; settings: all cell lines, 48 h
HCC827 [2] = experiment: Apoptosis assay; format: cell-based; settings: 12 μM ERL, 2 μM CDODA-Me alone or in combination, 48 h
[3] = system: H1975-CL1 (EGFR G796D mutation rociletinib resistant); experiment: Cytotoxicity assay; format: cell-based; settings: H1975 CL1, 48 h, single agent; no unit printed in Table 3 (b74 gives μM)
NSCLC cell lines = experiment: Cytotoxicity assay, statements across cell lines; format: cell-based
H1299 (p53 mutated) = experiment: Cytotoxicity assay; format: cell-based; settings: H1299, 48 h, single agent
total MET = experiment: Western blot analysis of total MET; format: cell-based; settings: all cell lines, 48 h
[4] = system: HCC827-Cl4 (T790M EGFR ERL Resistant); experiment: Cytotoxicity assay; format: cell-based; settings: HCC827-CL4, 48 h, single agent; no unit printed in Table 3 (b74 gives μM)
[5] = cited from earlier work
[6] = system: H1975 (T790M EGFR ERL Resistant); experiment: Cytotoxicity assay; format: cell-based; settings: H1975, 48 h, single agent; no unit printed in Table 3 (b74 gives μM)
HCC827 [7] = experiment: Cytotoxicity assay; format: cell-based; settings: HCC827, 48 h, single agent; no unit printed in Table 3 (b74 gives μM)
HCC827-CL4 = experiment: Apoptosis assay; format: cell-based; settings: 12 μM ERL alone or with 2 μM CDODA-Me, 48 h
H1975-CL1 = experiment: Apoptosis assay; format: cell-based; settings: 12 μM ERL alone or with 2 μM CDODA-Me, 48 h
H1975 = experiment: Apoptosis assay; format: cell-based; settings: 12 μM ERL alone or with 2 μM CDODA-Me, 48 h
p-MET = experiment: Western blot analysis of p-MET; format: cell-based; settings: 12 μM ERL alone or with 2 μM CDODA-Me, 48 h
HCC827 [8] = experiment: Clonogenic assay; format: cell-based; settings: 12 μM ERL, 48 h, reseeded, p < 0.001
HCC827–4 μM = experiment: Clonogenic assay; format: cell-based; settings: 12 μM ERL, 48 h, reseeded, p < 0.001
HCC827–4μM = experiment: Apoptosis assay; format: cell-based; settings: 12 μM ERL alone or with 2 μM CDODA-Me, 48 h
[9] = system: EGFR mutated non–small cell lung cancer; settings: patients harboring exon 19 deletion / exon 21 EGFR mutations; cited from earlier work
p-EGFR = experiment: Western blot analysis of p-EGFR; format: cell-based; settings: 48 h
H460 [10] = experiment: Clonogenic assay; format: cell-based; settings: 12 μM ERL, 48 h, reseeded, p < 0.001
H460 [11] = experiment: Apoptosis assay; format: cell-based; settings: 12 μM ERL alone or with 2 μM CDODA-Me, 48 h

In the case of `COC(=O)[C@@]1(C)CC[C@]2(C)CC[C@]3(C)C(=CC(=O)[C@@H]4[C@@]5(C)C=C(C#N)C(=O)C(C)(C)[C@@H]5CC[C@]43C)[C@@H]2C1` [CDODA-Me, Methyl 2-cyano-3, 11-dioxo-18b-olean-1, 12-dien-30-oate], the IC50 [1] is reported as 4.4 ± 1.3 µM, the IC50 (H460 (KRAS mutated); H460, 48 h, single agent, no unit printed in Table 3 (b74 gives μM)) is reported as 5.5 ± 0.8 µM and the “total EGFR expression” value (total EGFR) is reported as “no effect”. For the same compound, the apoptotic cells (HCC827 [2]) was “approximately 21.68 ± 1.8%”, the IC50 [3] was 6.6 ± 1.1 µM and the cell viability (NSCLC cell lines; 2 μM, all cell lines) was under 20%. For the same compound, the IC20 (NSCLC cell lines; resistant HCC827 cells) was 2 µM, the IC50 (H1299 (p53 mutated)) was 5.4 ± 2.4 µM and the “total MET expression” value (total MET) was “no effect”. The IC50 [4] was 5.7 ± 2.04 µM, the “permeability (classification)” value [5] was “high permeability” and the “solubility (classification)” value [5] was “low solubility”. The IC50 [6] was 6.2 ± 1.64 µM and the IC50 (HCC827 [7]) was 4.5 ± 1.6 µM.

In the case of `C#Cc1cccc(Nc2ncnc3cc(OCCOC)c(OCCOC)cc23)c1` [ERL, erlotinib], the apoptotic cells (HCC827-CL4) is reported as 8 ± 2.5%, the apoptotic cells (H1975-CL1) is reported as 9 ± 2.7% and the IC50 (H460 (KRAS mutated); Homo sapiens, NCI-H460, 48 h) is reported as 16.3 ± 1.2 µM. For the same compound, the apoptotic cells (H1975) was 15 ± 3.7%, the “expression of p-MET” value (p-MET; H1975-CL1, p < 0.001) was “decreased p-MET expression” and the “expression of p-MET” value (p-MET; H1975, p < 0.01) was “decreased p-MET expression”. For the same compound, the “expression of p-MET” value (p-MET; HCC827-CL4, p < 0.01) was “decreased p-MET expression”, the apoptotic cells (HCC827 [2]) was about 64.23 ± 1.7% and the colony formation (HCC827 [8]) was “decreased colony formation”. For the same compound, the colony formation (HCC827–4 μM) was “decreased colony formation”, the apoptotic cells (HCC827–4μM) was 11 ± 2.9% and the “patients with decreased tumor volume” value [9] was 70%. For the same compound, the p-EGFR expression (p-EGFR; H1975-CL1, 12 μM ERL alone or with 2 μM CDODA-Me) was “not significant”, the P-EGFR expression (p-EGFR; HCC827, 12 μM ERL (p < 0.01) or 12 μM ERL + 2 μM CDODA-Me (p < 0.05)) was “significantly decreased” and the colony formation (H460 [10]) was “decreased colony formation”. It also gave an apoptotic cells (H460 [11]) of 5 ± 4.3%.
